System: KRAS patient-derived spheroids with HUVEC/MSC, viability
Experiment: Anticancer human tumor 323965-272-R-J2-PDC patient-derived pancreatic carcinoma cell line growth inhibition [KRAS2]
Details: for IC50: curve of first compound; for viability, T/C: stronger effect = lower value
In short: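 Combination screen of spheroid viability in tumor-cell co-cultures with endothelial (HUVEC) and mesenchymal stem cell stroma. Each agent was tested in half-log dilutions, topping at clinical Cmax or at 10 microM without a known Cmax.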

[1] = second compound 0.1 µM, first compound 0.0316 µM
[2] = second compound 0.1 µM, first compound 0.1 µM
[3] = second compound 0.1 µM, first compound 0.316 µM
[4] = second compound 0.1 µM, first compound 1 µM
[5] = second compound 0.1 µM, first compound 3.16 µM
[6] = second compound 0.1 µM, first compound 10 µM
[7] = second compound 0.316 µM, first compound 0.0316 µM
[8] = second compound 0.316 µM, first compound 0.1 µM
[9] = second compound 0.316 µM, first compound 0.316 µM
[10] = second compound 0.316 µM, first compound 1 µM
[11] = second compound 0.316 µM, first compound 3.16 µM
[12] = second compound 0.316 µM, first compound 10 µM
[13] = second compound 1 µM, first compound 0.0316 µM
[14] = second compound 1 µM, first compound 0.1 µM
[15] = second compound 1 µM, first compound 0.316 µM
[16] = second compound 1 µM, first compound 1 µM
[17] = second compound 1 µM, first compound 3.16 µM
[18] = second compound 1 µM, first compound 10 µM
[19] = second compound 3.16 µM, first compound 0.0316 µM
[20] = second compound 3.16 µM, first compound 0.1 µM
[21] = second compound 3.16 µM, first compound 0.316 µM
[22] = second compound 3.16 µM, first compound 1 µM
[23] = second compound 3.16 µM, first compound 3.16 µM
[24] = second compound 3.16 µM, first compound 10 µM
[25] = second compound 10 µM, first compound 0.0316 µM
[26] = second compound 10 µM, first compound 0.1 µM
[27] = second compound 10 µM, first compound 0.316 µM
[28] = second compound 10 µM, first compound 1 µM
[29] = second compound 10 µM, first compound 3.16 µM
[30] = second compound 10 µM, first compound 10 µM
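Further: spheroids exposed to agents for 7 days.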
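Wherever viability, T/C is given: 100% = DMSO vehicle control viability.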

Compound | IC50 (second compound 0.1 µM) [nM] | IC50 (second compound 0.316 µM) [nM] | IC50 (second compound 1 µM) [nM] | IC50 (second compound 3.16 µM) [nM] | IC50 (second compound 10 µM) [nM] | viability, T/C [1] [%] | viability, T/C [2] [%] | viability, T/C [3] [%] | viability, T/C [4] [%] | viability, T/C [5] [%] | viability, T/C [6] [%] | viability, T/C [7] [%] | viability, T/C [8] [%] | viability, T/C [9] [%] | viability, T/C [10] [%] | viability, T/C [11] [%] | viability, T/C [12] [%] | viability, T/C [13] [%] | viability, T/C [14] [%] | viability, T/C [15] [%] | other results
CC1OCC2(CCN(c3cnc(Sc4ccnc(N)c4Cl)c(N)n3)CC2)C1N (stereo not given) + C=CC(=O)N1CCN(c2nc(=O)n(-c3c(C)ccnc3C(C)C)c3nc(-c4c(O)cccc4F)c(F)cc23)C(C)C1 | < 31.6 | < 31.6 | < 31.6 | < 31.6 | < 31.6 | 41.2 | 31.8 | 25 | 15.9 | 11.1 | 12 | 39.1 | 29.8 | 22.5 | 19 | 10.7 | 11.6 | 46.9 | 30.2 | 24.1 | viability, T/C [16]: 17.6%; viability, T/C [17]: 15%; viability, T/C [18]: 12.1%; viability, T/C [19]: 45.2%; viability, T/C [20]: 38.7%; viability, T/C [21]: 26.9%; viability, T/C [22]: 17.2%; viability, T/C [23]: 15.8%; viability, T/C [24]: 13%; viability, T/C [25]: 33%; viability, T/C [26]: 29.1%; viability, T/C [27]: 19.4%; viability, T/C [28]: 16.4%; viability, T/C [29]: 11.5%; viability, T/C [30]: 12.1%
COc1cc2nccc(Oc3ccc(NC(=O)C4(C(=O)Nc5ccc(F)cc5)CC4)cc3)c2cc1OC + CC1OCC2(CCN(c3cnc(Sc4ccnc(N)c4Cl)c(N)n3)CC2)C1N | > 10000 | > 10000 | < 31.6 | < 31.6 | < 31.6 | 80.4 | 80.5 | 74.9 | 87.4 | 79.8 | 73.5 | 58.7 | 65.4 | 65.5 | 64.6 | 71.9 | 63 | 46.9 | 42.4 | 46.9 | viability, T/C [16]: 58.4%; viability, T/C [17]: 52.8%; viability, T/C [18]: 45.4%; viability, T/C [19]: 35.1%; viability, T/C [20]: 36.1%; viability, T/C [21]: 36.3%; viability, T/C [22]: 35.5%; viability, T/C [23]: 35.2%; viability, T/C [24]: 29.8%; viability, T/C [25]: 27.4%; viability, T/C [26]: 28.8%; viability, T/C [27]: 26.8%; viability, T/C [28]: 30.3%; viability, T/C [29]: 33.5%; viability, T/C [30]: 27.3%
O=C(c1cc(Cc2n[nH]c(=O)c3ccccc23)ccc1F)N1CCN(C(=O)C2CC2)CC1 + C=CC(=O)N1CCN(c2nc(=O)n(-c3c(C)ccnc3C(C)C)c3nc(-c4c(O)cccc4F)c(F)cc23)C(C)C1 | > 10000 | 7450 | 7830 | > 10000 | 1730 | 64.6 | 61.7 | 62.9 | 64.5 | 64.7 | 50.3 | 67.1 | 59.7 | 61.3 | 55.9 | 55.3 | 46.7 | 60.8 | 59.9 | 59.2 | viability, T/C [16]: 61.7%; viability, T/C [17]: 60.3%; viability, T/C [18]: 39.2%; viability, T/C [19]: 64.2%; viability, T/C [20]: 66.2%; viability, T/C [21]: 61.1%; viability, T/C [22]: 61%; viability, T/C [23]: 58.7%; viability, T/C [24]: 46.2%; viability, T/C [25]: 48.3%; viability, T/C [26]: 50.1%; viability, T/C [27]: 60.3%; viability, T/C [28]: 55.6%; viability, T/C [29]: 45%; viability, T/C [30]: 32%
